A word on the IC50: it is the concentration that gives 50% inhibition.

Data set [1] concerns non-senescent Primary Renal Cortical Cells. Nature of the data set: CellTiter-Glo cell viability assay, non-senescent renal epithelial cells. In kind it is cell-based. To be noted: 72 h, 3 days. The method, then:
(§1) To determine whether ABT-263 is selectively toxic to senescent cells compared to non-senescent cells, a cell viability assay was used to assess cell survival following treatment with ABT-263. IMR90 cells (human primary lung fibroblasts (IMR90) (IMR-90 (ATCC® CCL-186™, Manassas, Virginia) were seeded in six well plates, and cells were induced to senescence with 10 Gy of ionizing radiation (IR) (Day 0). The media was refreshed every 3 days. The senescent phenotype is allowed to develop for 7 days at which point a cell count was made to determine the baseline number of cells followed by seeding into 96-well plates. On day 8, the senescent cells (irradiated) and the non-senescent cells (the non-radiated cells), were exposed to serial dilutions of ABT-263 for a period of 3 days. ABT-263 concentrations ranged from 0.5 nM to 3 μM. Each condition was seeded in triplicate.
(§2) After three days of treatment (Day 11), cells were assayed for cell survival using the commercially available CellTiter-Glo® (CTG) Luminescent Cell Viability Assay (Promega Corporation, Madison, Wisconsin). The assay determines the number of viable cells in culture based on the quantitation of ATP present which is an indicator of metabolically active cells.
(§3) The methods of Example 7 were repeated in other cell strains. […]
In general terms: Cellular ATP, detected with luciferase, serves as a proxy for viable cell number.

The test system of data set [2] is non-senescent IMR90 cells. Nature of the data set: Cell counting assay, non-senescent IMR90. To be noted: 3 μM, 24 hour exposure. The class given is cell-based, human. The protocol: (§4) To determine whether ABT-263 is selectively toxic to senescent cells compared to non-senescent cells, a cell counting assay was used to determine cell survival following treatment with ABT-263. […] Each condition was seeded in three wells and counted independently. Cells were counted after a 24 hour exposure to ABT-263 (or control culture).

Data set [3] deals with senescent IMR90 cells (Sen(IR) IMR90). The experiment in a line: Cell counting assay, senescent IMR90. In kind it is cell-based, human. To be noted: 3 μM, 24 hour exposure. The protocol:
as §4

For data set [4], the system named is senescent IMR90 cells (IMR90 Sen(IR)). Nature of the data set: Pan-caspase inhibitor (Q-VD-OPh) apoptosis assay in IMR90 cells. The class given is cell-based, human.
Protocol: Lung fibroblast cell line IMR90 (human primary lung fibroblasts, ATCC® CCL-186™, Manassas, Virginia) were seeded in six-well plates and induced to senesce with 10 Gy of ionizing radiation (IR) as described in Example 12. After senescence was established, cells were re-seeded into 96 well plates. […] At the end of the assay time period, cells were counted. Each condition was seeded in three plate wells and counted independently. […] Cell survival was determined using the commercially available CellTiter-Glo® Luminescent Cell Viability Assay (Promega Corporation, Madison, Wisconsin). The assay determines the number of viable cells in culture based on the quantitation of ATP present which is an indicator of metabolically active cells.
For a further data set, the system named is senescent IMR90 cells. The experiment in a line: CellTiter-Glo cell viability assay, senescent IMR90. The class given is cell-based, human. The method, then:
as §1, §2
The experiments performed for assessing the effect of these other Bcl-2 inhibitors were performed essentially as described in Example 7. Cells were exposed to ABT-199 at serial dilution concentrations ranging from 15 nM to 100 μM (FIGS. 26 and 27). Cells were exposed to Obatoclax at concentrations ranging from 1.4 nM to 9 μM (FIG. 28).
IMR90 cells were induced to senescence by irradiation as described in Example 7. The irradiated IMR90 cells and non-senescent IMR90 cells were then exposed to a compound called ML214 that is a Bcl-2A1 specific inhibitor.
The effect of ABT-263 in combination with the Akt inhibitor MK-2206 was tested for selective toxicity of senescent cells compared to non-senescent cells in IMR90 cells. The methods of Example 7 were repeated except that cell cultures were exposed to 10 nM MK-2206 (Selleckem, Cat #S1078) in addition to serial dilutions of ABT-263.

Data set [5] has as its system senescent HCA2 foreskin fibroblast cells. Nature of the data set: CellTiter-Glo cell viability assay, senescent HCA2. The class given is cell-based. To be noted: 72 h; senescent HCA2, 3 days. The protocol: as §1, §2, §3
Data set [6] concerns 3MR or INK-ATTAC mice exposed to cigarette smoke. Nature of the data set: Chronic cigarette smoke exposure model (COPD). The class given is in vivo, mouse. To be noted: after 2 months of cigarette smoke exposure; vs untreated controls. The protocol:
In a second animal model for pulmonary diseases (e.g., COPD), mice were exposed to cigarette smoke. The effect of a senolytic agent on the mice exposed to smoke is assessed by senescent cell clearance, lung function, and histopathology.
Six week-old 3MR (n=35) or INK-ATTAC (n=35) mice were chronically exposed to cigarette smoke generated from a Teague TE-10 system, an automatically-controlled cigarette smoking machine that produces a combination of side-stream and mainstream cigarette smoke in a chamber, which is transported to a collecting and mixing chamber where varying amounts of air is mixed with the smoke mixture. The COPD protocol was adapted from the COPD core facility at Johns Hopkins University (at Internet site web.jhu.edu/Biswal/exposure_core/copd.html#Cigarette_Smoke) (Rangasamy et al., 2004, J. Clin. Invest. 114:1248-1259; Yao et al., 2012, J. Clin. Invest. 122:2032-2045). Mice received a total of 6 hours of cigarette smoke exposure per day, 5 days a week for 6 months. Each lighted cigarette (3R4F research cigarettes containing 10.9 mg of total particulate matter (TPM), 9.4 mg of tar, and 0.726 mg of nicotine, and 11.9 mg carbon monoxide per cigarette [University of Kentucky, Lexington, KY]) was puffed for 2 seconds and once every minute for a total of 8 puffs, with the flow rate of 1.05 L/min, to provide a standard puff of 35 cm^3. The smoke machine was adjusted to produce a mixture of side stream smoke (89%) and mainstream smoke (11%) by smoldering 2 cigarettes at one time. The smoke chamber atmosphere was monitored for total suspended particulates (80-120 mg/m^3) and carbon monoxide (350 ppm). Beginning at day 7, (10) INK-ATTAC and (10) 3MR mice were treated with AP20187 (3× per week) or gancyclovir (5 consecutive days of treatment followed by 16 days off drug, repeated until the end of the experiment), respectively. An equal number of mice received the corresponding vehicle. The remaining […] (15 INK-ATTAC and 15 3MR) were evenly split with 5 of each genetically modified strain placed into three different treatment groups. One group (n=10) received Nutlin-3A (25 mg/kg dissolved in 10% DMSO/3% Tween-20 in PBS, treated 14 days consecutively followed by 14 days off drug, repeated until the end of the experiment). […]
After two months of cigarette smoke exposure, lung function was assessed by monitoring oxygen saturation using the MouseSTAT PhysioSuite pulse oximeter (Kent Scientific). […] Mice were monitored for 30 seconds and the average peripheral capillary oxygen saturation (SpO2) measurement over this duration was calculated.

The subject of data set [7] is p16-3MR mice treated with paclitaxel. The experiment in a line: Voluntary exercise (wheel counts) after paclitaxel in p16-3MR mice. To be noted: ABT-263 100 mg/kg i.p. daily 7 days; ganciclovir 25 mg/kg i.p. daily 3 days. In kind it is in vivo, mouse. The method, then: The capability of a senolytic agent, such as ABT-263, to reduce chemotherapy related side effects, such as fatigue, was examined in p16-3MR transgenic mice. In addition to doxorubicin, paclitaxel also induces cellular senescence when administered to animals. See Example 2 for a description of the p16-3MR transgenic mouse model.
In this experiment, paclitaxel was administered to groups of p16-3mr mice (n=4) three times, every two days. Two days after the third dose of paclitaxel, ganciclovir was administered daily for three days (days 1, 2, and 3) intraperitoneally at 25 mg/kg. ABT-263 (100 mg/kg) was administered intraperitoneally daily for seven days after paclitaxel administration. Two days after the last dose of ABT-263, all groups of animals were housed in metabolic cages (promethion, sable systems international, Las Vegas, NV) to monitor voluntary exercise as determined by wheel counts. Data were collected and analyzed two days later. Clearance of senescent cells by ABT-263 and ganciclovir restored approximately 70% of wheel count reduction caused by chemotherapy treatment.

In data set [8] the test system is senescent Primary Renal Cortical Cells. The experiment in a line: CellTiter-Glo cell viability assay, senescent renal epithelial cells. In kind it is cell-based. The conditions noted are these: 72 h, 3 days. The protocol:
as §1, §2, §3

Data set [9] relates to non-senescent IMR90 cells. The experiment in a line: CellTiter-Glo cell viability assay, non-senescent IMR90. The class given is cell-based. The conditions noted are these: Homo sapiens, IMR-90, 72 h; non-senescent IMR90, 3 days. The protocol: as §1, §2
The experiments performed for assessing the effect of these other Bcl-2 inhibitors were performed essentially as described in Example 7. […]

For data set [10], the system named is non-senescent HCA2 foreskin fibroblast cells. The experiment in a line: CellTiter-Glo cell viability assay, non-senescent HCA2. The class given is cell-based. The conditions noted are these: 72 h; non-senescent HCA2, 3 days. The method, then:
as §1, §2, §3

A value given as a limit tells only on which side of the number the result lay.

For `CC1(C)CCC(c2ccc(Cl)cc2)=C(CN2CCN(c3ccc(C(=O)NS(=O)(=O)c4ccc(N[C@H](CCN5CCOCC5)CSc5ccccc5)c(S(=O)(=O)C(F)(F)F)c4)cc3)CC2)C1` [ABT-263, 4-[4-[[2-(4-chlorophenyl)-5,5-dimethylcyclohexen-1-yl]methyl]piperazin-1-yl]-N-[4-[[(2R)-4-morpholin-4-yl-1-phenylsulfanylbutan-2-yl]amino]-3-(trifluoromethylsulfonyl)phenyl]sulfonylbenzamide], the IC50 is 430 nM in data set [1]; 140 nM with senescent IMR90 cells (Homo sapiens, IMR-90, 72 h, senescent IMR90, 3 days); 410 nM in data set [5]; 25 nM in [8]; 2400 nM in data set [9]; more than 3000 nM in data set [10]. Further, in [2], the “Percentage of survival of cells after 24 hours” value was “absence of toxicity”. The “Cell counts relative to counts before treatment” value in data set [3] was 28%. In data set [4] (0.33 or 1 μM, 3 days, Q-VD-OPh 20 μM), the “Percent of surviving senescent cells in the presence of the pan-caspase inhibitor” value is “increased”. For the same compound, in data set [4] (IMR90, 3 days), the “Selective killing of senescent cells” value was “selectively kills senescent cells”. The “In vitro theoretical therapeutic index” value with senescent IMR90 cells (IMR90, non-senescent vs senescent IC50) worked out at 17. The SpO2 levels result in data set [6] is on record as “statistically significant increases”. The “Restoration of wheel count reduction caused by chemotherapy” value in [7] is recorded as “approximately 70%”.

These data come from patent publication US11980616B2, “Treating liver disease by selectively eliminating senescent cells” (Buck Institute for Research on Aging, priority 2014, dated 2024).
